In patent US20230116703A1, “NOVEL ERGOLINES AND METHODS OF TREATING MOOD DISORDERS” (priority 2021, published 2023):
Where two headings read alike, the source gives them in different places.

Experiments:
[1] = Metabolic stability in human liver microsomes (HLM); format: in vitro ADME; conditions: for t1/2: 1 μM, 0.50 mg protein per mL; for microsomal CLint at 1 μM: both sexes, human, pooled human liver microsomes, pH 7.4, 0.50 mg protein per mL
From the text: HLM Stability. Pooled HLM from adult male and female donors (Corning 452117) were used.

[2] = target: T1, 5-HT2A receptor (Homo sapiens, UniProt P28223); assay: cell-based; format: cell-based; conditions: Ca^2+ flux, agonist; read-out: 5-HT2A EC50
T1 construct: host or cells: HEK293
Procedure: (§1) Functional Assays at 5-HT2A, 5-HT2B, and 5-HT1A. Agonist activity at 5-HT2A, 5-HT2B, and 5-HT1A receptors was determined using a FLIPR Ca^2+ flux assay at WuXi AppTec (Hong Kong) Limited according to their standard protocols. Briefly, stably transfected cells expressing the receptor of interest (HEK293 for 5-HT2A and 5-HT2B; CHO cells for 5-HT1A) were grown and plated in a 384 well plate and incubated at 37° C. and 5% CO2 overnight. A solution of 250 mM probenecid in 1 mL FLIPR assay buffer was prepared fresh. This was combined with a fluorescent dye (Fluo-4 Direct™) to make a final assay concentration of 2.5 mM. […] The fluorescent dye was then added to the assay plate along with assay buffer to a final volume of 40 μL. The cell plate was incubated for 50 min at 37° C. and 5% CO2 and placed into the FLIPR Tetra along with the compound plate. 10 μL of references and compounds were then transferred from the compound plate into the cell plate and the fluorescent signal was read.

[3] = Metabolic stability in rat liver microsomes (RLM); conditions: for t1/2: RLM, 0.50 mg protein per mL; for microsomal CLint at 1 μM: both, rat, pooled rat liver microsomes, pH 7.4
[4] = target: 5-HT1B receptor (Homo sapiens, UniProt P28222); assay: cAMP accumulation agonist assay at 5-HT1B; format: cell-based; conditions: cAMP, agonist; read-out: 5-HT1B EC50
Procedure: Disclosed compounds were tested for agonist activity at several serotonin receptor subtypes (5-HT2A, […], 5-HT2C, and 5-HT1A) using Ca^2+ flux functional assays and the 5-HT1B receptor using a cAMP accumulation assay, with the results summarized in Table 4. […] Potent agonist activity was also observed at the other serotonin receptors tested, although the selectivity profile among the receptors varied across compounds. […]. However, at the same time, the N-propyl compounds were more efficacious agonists at 5-HT2B than the corresponding N-methyl compounds. The selectivity of disclosed compounds for 5-HT2A over 5-HT2C and 5-HT1A was less predictable and varied widely across compounds, ranging from ˜1:6 to ˜20:1 (2C/2A) in the case of 5-HT2C and from ˜1:4 to >100:1 (1A/2A) in the case of 5-HT1A. […] An azetidinyl amide substituent tended to increase potency at 5-HT1A relative to 5-HT2A.
Functional Assay at 5-HT1B. Agonist activity at 5-HT1B was determined using a cAMP accumulation protocol at WuXi AppTec (Hong Kong) Limited according to their standard protocols. Briefly, stably transfected cells were plated in an OptiPlate-384 well plate, incubated at RT for 60 mins, and cAMP standard solution (800 nM, 10 μL) was added to the blank well. Then, 10 μL detection reagent was added to each well, the plate incubated for 60 mins at RT, and the plate read using EnVision.

[5] = target: T1, 5-HT2A receptor; assay: biochemical; format: binding; conditions: 1 nM [^3H]ketanserin, HEK293 stable cell line; read-out: 5-HT2A Receptor Ki (nM) ([^3H]ketanserin)
Procedure: Affinity of the test compounds for the 5-HT2A receptor was determined in radioligand binding experiments with [^3H]ketanserin by WuXi AppTec (Hong Kong) Limited, using methods adapted from the literature and under conditions described in Table 1.

[6] = Metabolic stability in mouse liver microsomes (MLM); format: in vitro ADME; conditions: 0.50 mg protein per mL; for t1/2: MLM (CD-1), 1 μM; for microsomal CLint at 1 μM: mouse, pooled mouse liver microsomes, pH 7.4, MLM (CD-1)
From the text: MLM Stability Pooled MLM from CD-1 mice (BIOIVT M00501) were used.

[7] = target: T2, 5-HT2B receptor (Homo sapiens, UniProt P41595); assay: cell-based; conditions: Ca^2+ flux, agonist; for EC50: read-out: 5-HT2B EC50
T2 construct: host or cells: HEK293
Procedure: as §1

[8] = target: T3, 5-HT1A receptor (Homo sapiens, UniProt P08908); assay: cell-based
T3 construct: host or cells: CHO cells
T3 sequence (P08908 1-422): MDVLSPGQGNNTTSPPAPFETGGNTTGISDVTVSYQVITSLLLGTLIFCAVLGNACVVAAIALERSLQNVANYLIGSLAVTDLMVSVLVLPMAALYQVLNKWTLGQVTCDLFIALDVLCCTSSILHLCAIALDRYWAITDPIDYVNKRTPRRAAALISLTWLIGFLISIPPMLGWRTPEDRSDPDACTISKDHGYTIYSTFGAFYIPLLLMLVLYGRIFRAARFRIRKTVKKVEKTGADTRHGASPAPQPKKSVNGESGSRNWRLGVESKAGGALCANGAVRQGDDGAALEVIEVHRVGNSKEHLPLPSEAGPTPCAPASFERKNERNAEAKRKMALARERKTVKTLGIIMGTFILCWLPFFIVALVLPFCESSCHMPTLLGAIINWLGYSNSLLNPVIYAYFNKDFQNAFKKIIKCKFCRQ
Procedure: as §1

[9] = target: T1, 5-HT2A receptor; assay: PathHunter beta-arrestin recruitment assay at 5-HT2A; format: cell-based
Procedure: The degree of arrestin bias varied substantially across the other compounds tested as well.
Arrestin Functional Assay at 5-HT2A. Recruitment of beta-arrestin was determined using a PathHunter assay at Eurofins DiscoverX (Fremont, Calif.) according to their standard protocols. PathHunter GPCR beta-arrestin assays take advantage of DiscoverX's proprietary Enzyme Fragment Complementation technology. The GPCR is fused in frame with a small enzyme donor fragment ProLink™ (PK) and co-expressed in cells stably expressing a fusion protein of beta-arrestin and the larger, N-terminal deletion mutant of beta-galactosidase. Activation of the GPCR (5-HT2A receptor in this case) stimulates binding of beta-arrestin to the PK-tagged GPCR and forces complementation of the two enzyme fragments, resulting in the formation of an active beta-galactosidase enzyme. This interaction leads to an increase in enzyme activity that can be measured using chemiluminescent PathHunter Detection Reagents. Briefly, PathHunter cells expressing 5-HT2A receptors were seeded in a volume of 20 μL into 384-well plates and incubated at 37° C. for the appropriate time prior to testing. […] Plates were then imaged on a microplate reader and the agonist activity was calculated using the following formula: % Activity=100%×(mean RLU of test sample−mean RLU of vehicle control)/(mean MAX control ligand−mean RLU of vehicle control), where RLU=relative light units.

[10] = test system: C57BL/6 mice; assay: Head twitch response (HTR) in mice; format: in vivo, mouse; conditions: mouse HTR, SC
Procedure: Agonists of the 5-HT2A receptor are well known to induce this effect in rodents and the potency of this HTR is correlated with hallucinogenic potency in humans.
Animals. Adult male C57BL/6 mice, aged 6-8 weeks (body weight 20-25 g) were used in this experiment. Animals were housed under controlled temperatures and 12-hour light/dark cycles (lights on between 07:00-19:00 h), with ad libitum food and water. This study was carried out in strict accordance with the requirements of the Committee for the Purpose of Control and Supervision of Experiments on Animals (CPCSEA), India. All efforts were made to minimize suffering.
Drugs and Drug Administration. Compound 1 was synthesized as described above. It was administered subcutaneously (SC) dissolved in saline vehicle at a volume of 10 mL/kg. Five doses were tested, with n=6 animals/group. Doses were calculated on the basis of the freebase.
Procedure. Mice were administered one dose of the drug and immediately placed into a small open field for behavioral observation. Animals were observed continuously for 20 mins and the number of head twitches (HTs) were counted by an observer blind to the treatment condition.
Statistical Analysis. The data points shown are the mean±standard error of the mean (SEM). Analysis was performed using GraphPad Prism 6. Curves were fit using a non-linear gaussian distribution to calculate ED50 and Emax values.
Additional disclosed compounds were tested in the mouse head twitch response (HTR) assay according to the procedure described in Example 43. […] Lastly, compounds with much larger benzyl and phenethyl substituents on the amine nitrogen (e.g., 10 and 11) were low efficacy in this assay, consistent with their lower maximal efficacy in the arrestin functional assay (see Example 41).

[11] = Ca^2+ flux, agonist, read-out: 5-HT1A EC50

Sequence of 5-HT1B receptor (P28222 whole entry): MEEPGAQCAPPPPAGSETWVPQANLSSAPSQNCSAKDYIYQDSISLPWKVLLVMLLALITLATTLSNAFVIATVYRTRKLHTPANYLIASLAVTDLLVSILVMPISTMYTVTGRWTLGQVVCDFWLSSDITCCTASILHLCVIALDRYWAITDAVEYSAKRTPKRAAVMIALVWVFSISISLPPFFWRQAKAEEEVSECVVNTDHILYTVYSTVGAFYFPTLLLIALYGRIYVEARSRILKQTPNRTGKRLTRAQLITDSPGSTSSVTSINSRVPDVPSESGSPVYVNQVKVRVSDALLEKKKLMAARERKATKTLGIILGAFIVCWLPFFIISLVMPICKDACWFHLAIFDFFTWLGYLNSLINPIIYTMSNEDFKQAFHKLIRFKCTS
T1 sequence (P28223 whole entry): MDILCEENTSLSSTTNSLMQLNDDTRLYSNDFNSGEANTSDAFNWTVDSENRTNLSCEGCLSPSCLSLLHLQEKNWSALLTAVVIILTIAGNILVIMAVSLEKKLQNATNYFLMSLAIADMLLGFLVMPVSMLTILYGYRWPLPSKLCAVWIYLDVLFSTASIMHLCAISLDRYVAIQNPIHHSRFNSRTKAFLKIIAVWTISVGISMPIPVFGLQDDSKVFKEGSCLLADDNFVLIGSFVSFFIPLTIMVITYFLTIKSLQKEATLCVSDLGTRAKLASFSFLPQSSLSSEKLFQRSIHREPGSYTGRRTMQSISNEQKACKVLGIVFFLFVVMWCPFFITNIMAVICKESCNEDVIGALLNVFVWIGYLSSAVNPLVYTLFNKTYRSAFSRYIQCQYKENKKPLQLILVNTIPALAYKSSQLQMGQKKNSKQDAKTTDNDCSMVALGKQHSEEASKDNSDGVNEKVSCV
T2 sequence (P41595 whole entry): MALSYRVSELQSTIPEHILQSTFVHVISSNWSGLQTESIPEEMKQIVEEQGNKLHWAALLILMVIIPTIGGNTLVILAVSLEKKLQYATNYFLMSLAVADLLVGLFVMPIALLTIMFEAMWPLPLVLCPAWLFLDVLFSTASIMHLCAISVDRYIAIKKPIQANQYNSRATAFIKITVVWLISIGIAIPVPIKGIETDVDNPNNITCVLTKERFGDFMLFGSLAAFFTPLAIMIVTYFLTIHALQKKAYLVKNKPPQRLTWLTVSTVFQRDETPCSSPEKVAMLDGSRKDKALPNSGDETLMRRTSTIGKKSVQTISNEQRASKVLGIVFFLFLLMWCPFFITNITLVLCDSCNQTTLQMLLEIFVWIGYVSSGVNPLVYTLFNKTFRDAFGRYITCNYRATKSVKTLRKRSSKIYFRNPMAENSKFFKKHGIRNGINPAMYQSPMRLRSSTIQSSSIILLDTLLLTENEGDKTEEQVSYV

Compound	t1/2 [1] [min]	microsomal CLint at 1 μM [1] [µL/min/mg]	EC50 [2] [nM]	t1/2 [3] [min]	microsomal CLint at 1 μM [3] [µL/min/mg]	EC50 [4] [nM]	Ki [5] [nM]	t1/2 [6] [min]	microsomal CLint at 1 μM [6] [µL/min/mg]	5-HT2B % Act @ Max Dose [7] [%]	EC50 [7] [nM]	EC50 [8, 11] [nM]	5-HT1A % Act @ Max Dose ([8]; Ca^2+ flux, agonist) [%]	EC50 [9] [nM]	Emax ([9]; 5-HT2A beta-arrestin) [%]	agonist type in arrestin recruitment assay (in words) ([9]; 5-HT2A beta-arrestin)	EC50 [8] [nM]	ED50 ([10]; 20 min, 20 min observation, curve fit, poor in some cases, read-out: ED50 (95% CI)) [mg/kg]	Most Efficacious Dose [10] [mg/kg]	Emax (95% CI) ([10]; 20 min observation, curve fit, poor in some cases)
CCN(CC)C(=O)[C@@H]1C=C2c3cccc4[nH]cc(c34)C[C@H]2N(CCc2cccc(OC)c2)C1 [Compound 20, (6aR,9R)—N,N-diethyl-7-(3-methoxyphenethyl)-4,6,6a,7,8,9-hexahydroindolo[4,3-fg]quinoline-9-carboxamide]	2.1	649	265	1.2	1150	> 10000	1.03	0.9	1550	3.60	> 10000	> 10000								
CCN(CC)C(=O)[C@@H]1C=C2c3cccc4[nH]cc(c34)C[C@H]2N(CCc2ccc(OC)cc2)C1 [Compound 21, (6aR,9R)—N,N-diethyl-7-(4-methoxyphenethyl)-4,6,6a,7,8,9-hexahydroindolo[4,3-fg]quinoline-9-carboxamide]	3.8	368	619	4.3	323	2750	1.93	1.9	717		> 10000	> 10000	8.2							
CCN(CC)C(=O)[C@@H]1C=C2c3cccc4[nH]cc(c34)C[C@H]2N(Cc2ccccn2)C1 [Compound 22, (6aR,9R)—N,N-diethyl-7-(pyridin-2-ylmethyl)-4,6,6a,7,8,9-hexahydroindolo[4,3-fg]quinoline-9-carboxamide]	23.8	58.2	748	13.2	105	847	28.4	9.2	150		> 10000	7840								
CCN(CC)C(=O)[C@@H]1C=C2c3cccc4[nH]cc(c34)C[C@H]2N(CCc2ccccn2)C1 [Compound 23, (6aR,9R)—N,N-diethyl-7-(2-(pyridin-2-yl)ethyl)-4,6,6a,7,8,9-hexahydroindolo[4,3-fg]quinoline-9-carboxamide]	7.2	193	512	4.2	332	450	26.6	1.8	769		> 10000	> 10000								
C[C@H]1C[C@H](C)N1C(=O)[C@@H]1C=C2c3cccc4[nH]cc(c34)C[C@H]2N(C)C1 [Int11, ((2S,4S)-2,4-dimethylazetidin-1-yl)((6aR, 9R)-7-methyl-4,6,6a,7,8,9-hexahydroindolo[4,3-fg]quinolin-9-yl)methanone]	25.7	53.9	37	54.9	25.3		2.22	13.9	100		96.6			1.57	< 60	partial agonists	8.88	0.0154	0.1	10.93 (9.181-12.76)
